The subject of the assay is anti-GBM exposed mice. Briefly: Anti-GBM induced glomerulonephritis in mice. Format: in vivo, mouse. The settings on record: 10 mg/kg/day po 7 days, vs vehicle.

The structures appear in SMILES notation.

`C[C@H](CS)C(=O)N1CCC[C@H]1C(=O)O` [captopril, reference compound]: the “Col1a expression (kidney)” value is given as “had no effect on Col1a expression”, the “Col3a expression (kidney)” value was “had no effect on Col3a expression”, the “TGFβR-1 expression (kidney)” value is “had no effect on TGFβ-R1 expression” and the “kidney MCP-1 levels” value is listed as “significantly reduced MCP-1 levels”. Besides, the kidney osteopontin levels result is listed as “significantly reduced osteopontin levels”, the serum urea levels result is given as “reduced urea level without reaching significance” and the urinary albumin levels result is on record as “reduced albumin levels without reaching significance”.

The values above are taken from patent US10052311B2, “PPAR compounds for use in the treatment of fibrotic diseases” (INVENTIVA, priority 2014, dated 2018).
